Measured values published in patent US9833497B2, “Human originated EGF domain proteins and use of the same” (CHENGDU SOURCEBIO LIMITED-LIABILITY COMPANY, priority 2013, dated 2017).

Key:
Assay type in all cases: cell-based
E. coli DH5α = test: Antibacterial activity: MIC and growth curve against E. coli DH5α in 96-well plate; settings: minimal inhibitory concentration against E. coli DH5α; 96-well plate, 5×10^5 CFU/mL, 37° C., judged after 8 h
Procedure, shortened: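 Log-phase DH5α (OD600 about 0.5, 37° C, 185 rpm in LB) was pelleted, resuspended in fresh LB and seeded at 5×10^5 CFU/mL with recombinant protein at 50, 25 and 12.5 μg/mL (two-fold series), in triplicate. Plates were shaken at 175 rpm, 37° C, and OD600 was read every 30 min. MIC was the lowest concentration with no growth.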

E. coli BL21 = test: MIC against Gram-negative bacteria: E. coli BL21
Procedure, shortened: (§1)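 Broth microdilution, LB medium, final inoculum 5×10^5 CFU/mL from McFarland 0.5 cultures. Recombinant human EGF domain proteins tested in two-fold steps, n=3. MIC: lowest concentration, no growth.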

Pseudomonas aeruginosa = test: MIC against Gram-negative bacteria: Pseudomonas aeruginosa
Procedure, shortened: as §1

Klebsiella pneumonia = test: MIC against Gram-negative bacteria: Klebsiella pneumonia
Procedure, shortened: as §1

Enterobacter cloacae = test: MIC against Gram-negative bacteria: Enterobacter cloacae
Procedure, shortened: as §1

Aeromonas hydrophila = test: MIC against Gram-negative bacteria: Aeromonas hydrophila
Procedure, shortened: as §1

Citrobacter diversus = test: MIC against Gram-negative bacteria: Citrobacter diversus
Procedure, shortened: as §1

Moraxella catarrhalis = test: MIC against Gram-negative bacteria: Moraxella catarrhalis
Procedure, shortened: as §1

Proteus mirabilis = test: MIC against Gram-negative bacteria: Proteus mirabilis
Procedure, shortened: as §1

Proteus vulgaris = test: MIC against Gram-negative bacteria: Proteus vulgaris
Procedure, shortened: as §1

Serratia marcescens = test: MIC against Gram-negative bacteria: Serratia marcescens
Procedure, shortened: as §1

[1] = 10 h cultivation at 37° C., 5×10^5 CFU/mL, two-fold serial dilution
[2] = 96-well plate, 5×10^5 CFU/mL, 37° C., 10 h

PRT772 (TIVSTESLETLAPGLCQEGQIWNGKQCVCPQGYVGYQCL; listed as Homo sapiens)
25 µg/mL: MIC (μg/mL) M. catarrhalis (Moraxella catarrhalis; M. catarrhalis, 10 h cultivation at 37° C., 5×10^5 CFU/mL) | MIC (μg/mL) P. vulgaris (Proteus vulgaris; P. vulgaris, 10 h cultivation at 37° C., 5×10^5 CFU/mL)
50 µg/mL: MIC (μg/mL) E. coli BL21 (E. coli BL21; E. coli BL21, 10 h cultivation at 37° C., 5×10^5 CFU/mL) | MIC (μg/mL) K. pneumonia (Klebsiella pneumonia; K. pneumonia, 10 h cultivation at 37° C., 5×10^5 CFU/mL) | MIC (μg/mL) A. hydrophila (Aeromonas hydrophila; A. hydrophila, 10 h cultivation at 37° C., 5×10^5 CFU/mL) | MIC (μg/mL) P. mirabilis (Proteus mirabilis; P. mirabilis, 10 h cultivation at 37° C., 5×10^5 CFU/mL)
12.5 µg/mL: MIC (E. coli DH5α) | MIC (μg/mL) P. aeruginosa (Pseudomonas aeruginosa; P. aeruginosa, 10 h cultivation at 37° C., 5×10^5 CFU/mL) | MIC (μg/mL) E. cloacae (Enterobacter cloacae; E. cloacae, 10 h cultivation at 37° C., 5×10^5 CFU/mL) | MIC (μg/mL) C. diversus (Citrobacter diversus; C. diversus, 10 h cultivation at 37° C., 5×10^5 CFU/mL) | MIC (μg/mL) S. marcescens (Serratia marcescens; S. marcescens, 10 h cultivation at 37° C., 5×10^5 CFU/mL)

PRT1018 (DVDECETQGPPHCRNGGTCQNSAGSFHCVCVSGWGGTSCE; listed as Homo sapiens)
25 µg/mL: MIC (E. coli DH5α) | MIC (Enterobacter cloacae; E. cloacae, 10 h cultivation at 37° C.) | MIC (Serratia marcescens; S. marcescens, 10 h cultivation at 37° C.)
12.5 µg/mL: MIC (E. coli BL21; E. coli BL21, 10 h cultivation at 37° C.) | MIC (Klebsiella pneumonia; K. pneumonia, 10 h cultivation at 37° C.) | MIC (Citrobacter diversus; C. diversus, 10 h cultivation at 37° C.) | MIC (Proteus mirabilis; P. mirabilis, 10 h cultivation at 37° C.)
50 µg/mL: MIC (Pseudomonas aeruginosa; P. aeruginosa, 10 h cultivation at 37° C.) | MIC (Aeromonas hydrophila; A. hydrophila, 10 h cultivation at 37° C.) | MIC (Moraxella catarrhalis; M. catarrhalis, 10 h cultivation at 37° C.) | MIC (Proteus vulgaris; P. vulgaris, 10 h cultivation at 37° C.)

PRT1087 (HEEPCGPSHKSFCLNGGLCYVIPTIPSPFCRCVENYTGARCE; listed as Homo sapiens)
12.5 µg/mL: MIC E. coli BL21 (E. coli BL21; [1]) | MIC A. hydrophila (Aeromonas hydrophila; [1])
25 µg/mL: MIC C. diversus (Citrobacter diversus; [1]) | MIC P. mirabilis (Proteus mirabilis; [1]) | MIC P. vulgaris (Proteus vulgaris; [1]) | MIC S. marcescens (Serratia marcescens; [1])
50 µg/mL: MIC (E. coli DH5α) | MIC P. aeruginosa (Pseudomonas aeruginosa; [1]) | MIC K. pneumonia (Klebsiella pneumonia; [1]) | MIC E. cloacae (Enterobacter cloacae; [1]) | MIC M. catarrhalis (Moraxella catarrhalis; [1])

PRT673 (DVDECLDESNCRNGVCENTRGGYRCACTPPAEYSPAQRQCL; listed as Homo sapiens)
50 µg/mL: MIC (E. coli DH5α) | MIC P. aeruginosa (Pseudomonas aeruginosa; [2]) | MIC K. pneumonia (Klebsiella pneumonia; [2]) | MIC A. hydrophila (Aeromonas hydrophila; [2]) | MIC P. mirabilis (Proteus mirabilis; [2]) | MIC S. marcescens (Serratia marcescens; [2])
12.5 µg/mL: MIC E. coli BL21 (E. coli BL21; [2]) | MIC P. vulgaris (Proteus vulgaris; [2])
25 µg/mL: MIC E. cloacae (Enterobacter cloacae; [2]) | MIC C. diversus (Citrobacter diversus; [2]) | MIC M. catarrhalis (Moraxella catarrhalis; [2])

PRT1404 (RAACPVLCSGNGQYSKGRCLCFSGWKGTECD; listed as Homo sapiens)
12.5 µg/mL: MIC (E. coli DH5α) | MIC against E. cloacae (Enterobacter cloacae; Enterobacter cloacae, 5×10^5 CFU/mL, 10 h cultivation at 37° C.) | MIC against P. mirabilis (Proteus mirabilis; Proteus mirabilis, 5×10^5 CFU/mL, 10 h cultivation at 37° C.)
50 µg/mL: MIC against P. aeruginosa (Pseudomonas aeruginosa; Pseudomonas aeruginosa, 5×10^5 CFU/mL, 10 h cultivation at 37° C.) | MIC against C. diversus (Citrobacter diversus; Citrobacter diversus, 5×10^5 CFU/mL, 10 h cultivation at 37° C.) | MIC against S. marcescens (Serratia marcescens; Serratia marcescens, 5×10^5 CFU/mL, 10 h cultivation at 37° C.)
25 µg/mL: MIC against E. coli BL21 (E. coli BL21; E. coli BL21, 5×10^5 CFU/mL, 10 h cultivation at 37° C.) | MIC against K. pneumonia (Klebsiella pneumonia; Klebsiella pneumonia, 5×10^5 CFU/mL, 10 h cultivation at 37° C.) | MIC against A. hydrophila (Aeromonas hydrophila; Aeromonas hydrophila, 5×10^5 CFU/mL, 10 h cultivation at 37° C.) | MIC against M. catarrhalis (Moraxella catarrhalis; Moraxella catarrhalis, 5×10^5 CFU/mL, 10 h cultivation at 37° C.) | MIC against P. vulgaris (Proteus vulgaris; Proteus vulgaris, 5×10^5 CFU/mL, 10 h cultivation at 37° C.)
